Patent US20140086827A1, “Serum S100B And Uses Thereof” (THE CLEVELAND CLINIC FOUNDATION, priority 2011, published 2014)
“Also recorded” adds a separate entry of the source. Where two headings read alike, the source gives them in different places.

What was measured:
pilocarpine-induced SE [1] = assay: Pilocarpine-induced status epilepticus in rats (EEG, Racine's scale, mortality); type: in vivo, rat; details: for time to onset of SE: rats that developed SE
Experimental: Rats (male Sprague-Dawley 225-250 g) were injected with methylscopolamine (0.5 mg/kg, i.p., Sigma-Aldrich) and 30 minutes after with pilocarpine (340 mg/Kg, Sigma-Aldrich). Data obtained from a total of 45 rats was analyzed (see also FIG. 14B). Development of seizure and status epilepticus was evaluated by behavioral (Racine's scale) and EEG assessment. […] IL-RA data included here are relative to [Marchi N., et al. (2009) Neurobiol Dis 33: 171-181]. IL-RA was administrated in the tail vein (30 μg/kg) 2 hours before scopolamine/pilocarpine treatment.
Note that blood samples were taken at baseline, after each treatment and immediately before (or at onset) of status epilepticus (SE), as evaluated by EEG and behavioral (Racine's Scale) assessments. This methodology has been used in the past to evaluate the presence of BBB damage and inflammatory process preceding seizure onset [Uva L., et al. (2008) Neuroscience 151: 303-312].
Stereotactic electrode implantation was performed in rats under isofluorane anaesthesia, using the Kopf stereotactic frame. Approximately, half of the rats used were implanted. Four stainless steel screws (MX-0090-2, Small Parts Inc., Miami, Fla.) were placed bilaterally on the dura mater of the fronto-parietal cortex. A prefabricated Pinnacle pre-amplifier was connected to the screws. The system has three bio-potential channels—2 EEG and 1 EMG. Prefabricated head implants (Pinnacle Inc., USA) ensured accurate electrode positioning and reliable, robust contacts. Cable artifacts are eliminated by pre-amplification of the EEG and EMG waveforms at the animal's head. EEG data were sampled a rate of 200 Hz. All data are transferred via a USB connection to a PC. Rats were left unrestrained for 2 weeks to recovery from surgery before EEG recordings were performed. Each rat was kept in a separate cage under 12-hours dark-light cycles with free access to food and water. Origin Microcal 7.0 and Diadem (National Instruments) was used in conjunction to the acquisition system for data analysis (e.g., time joint frequency analysis).

seizures = details: drug-resistant children, Araki 2006; cited from earlier work
[2] = tested on: drug-resistant epileptic seizures; assay: Add-on glucocorticosteroid or ACTH treatment in pediatric drug resistant epilepsy (review of clinical data); type: in vivo, human; details: for occurrence of seizures (seizure burden vs baseline): add-on treatment, pediatric drug resistant epilepsy, 53 treatments
Experimental: The study was conducted according to the Declaration of Helsinki Criteria and to the procedures for compassionate drug administration approved by the Ethic Committees of Carlo Besta Institute (Milan, Italy). Oral informed consent from was obtained from parents by specialized neurologists. Administration of GCs was considered compassion care since all patients had intractable life threatening seizures. The clinical data of 43 patients (Table 4) of the Carlo Besta Neurological Institute (Milan, Italy) was reviewed. […] Patients with a history of epileptic syndromes known to respond to steroids (i.e., West, Lennox-Gastaut, Landau-Kleffner and Rasmussen encephalitis) as well as patients affected by documented inflammatory brain disease were excluded. All the subjects received steroid treatment on an in-patient basis.
Patients received GCs or ACTH therapy because of one of the following: 1) >50% increase in seizure frequency; 2) development of non-convulsive status epilepticus; 3) presence of epilepsia partialis continua (EPC). Before GCs or ATCH treatment, patients were evaluated by a team of neurologists, physiologists, and underwent EEG and routine laboratory examinations. Antiepileptic treatments were maintained during the steroid course (Table 4).
Steroidal treatment was, when successful, repeated in case of seizure recurrence. […] GCs or ATCH therapy was considered successful when: 1) seizure frequency decreased by 50%; 2) status epilepticus was stopped; 3) or when epilepsia partialis continua (EPC) was stopped/reduced enough to allow voluntary movement in the affected body district. Duration of treatment was limited to acute dosing, which was repeated when the initial response was beneficial. The effects of length of treatments and efficacy/toxicity of chronic use are not presented herein, since this study design only addressed a proof of principle use of steroids in pediatric epilepsy.

IL-1β = assay: Serum IL-1β ELISA in rats; type: in vivo, rat; details: dexamethasone treatment
Experimental: (§1) The schedule of blood sampling is illustrated in FIG. 14A. Blood was collected from the tail vein using a fixed catheter (Venisystem, Abbocath, 22 G, 300-500 μl/sample). For FACS analysis, 150 μL of whole blood were incubated with a combination of specific antibodies recognizing T-cell subpopulation (CD3+). In particular mouse anti-rat CD8a-FITC, CD3-R-PE and CD4-PE-Cy5 (BD-Pharmingen) were added (2 μL, 5 μL and 5 μL respectively) to blood samples. Blood samples were analyzed by the FACS-Core facility at the Cleveland Clinic. IL-1β ELISA-tests was purchased from Pierce Biotechnology Inc. and performed as described by the vendor.

CD3+ T-lymphocytes = assay: FACS analysis of circulating T-lymphocytes in rat blood; type: in vivo; details: after dexamethasone treatment, rats
Experimental: as §1

pilocarpine-induced SE [3] = details: data from Marchi 2009, cited from earlier work
blood-brain barrier = details: IL-RA pre-treatment; previously reported; cited from earlier work
[4] = dexamethasone pre-treatment, vs pilocarpine alone

C[C@@H]1C[C@H]2[C@@H]3CCC4=CC(=O)C=C[C@]4(C)[C@@]3(F)[C@@H](O)C[C@]2(C)[C@@]1(O)C(=O)CO [dexamethasone]
time to onset of SE (pilocarpine-induced SE [1]; [4]): significantly delayed
time to onset of SE (pilocarpine-induced SE [1]; dexamethasone pre-treatment, vs pilocarpine alone, listed as Dexa): delayed
mortality associated with pilocarpine SE (twelve hours) (pilocarpine-induced SE [1]; dexamethasone pre-treatment, seizures not stopped with barbiturates): significantly decreased; also recorded: abolishes mortality; also recorded: reduced mortality; also recorded: abolished
early EEG burst clusters (time-joint frequency analysis) (pilocarpine-induced SE [1]; [4]): reduced in amplitude and frequency
effects of single dosage of 1 mg/day on pilocarpine seizures (pilocarpine-induced SE [1]; single dosage of 1 mg/day): did not exert any discernable effects
seizure frequency vs untreated patients (seizures): reduced seizure frequency
occurrence of seizures (seizure burden vs baseline) [2]: significantly reduced
MRI FLAIR hyperintensity ([2]; patient after dexamethasone treatment, concurrent with seizure reduction): decrease in FLAIR hyperintensity
serum IL1-β levels (IL-1β): reduced
serum IL1-β levels (IL-1β; listed as Dexamethasone): significantly reduced
number of circulating CD3+ T-lymphocytes (CD3+ T-lymphocytes): drastic reduction; also recorded: drastic decrease
relative percentage of CD8+ subpopulation among CD3+ cells (CD3+ T-lymphocytes): significantly affected

C[C@]12CCC(=O)C=C1CC[C@@H]1[C@@H]2[C@@H](O)C[C@@]2(C)[C@H]1CC[C@]2(O)C(=O)CO [hydrocortisone]
blood-brain barrier function and seizure frequency in epileptic patients receiving anti-inflammatory therapy ([2]; epileptic patients, clinical dosage): comparable effects

IL-RA: IL-1 receptor antagonist, data from Marchi 2009
early EEG burst clusters (time-joint frequency analysis) (pilocarpine-induced SE [3]; IL1-RA pre-treatment): reduced in amplitude and frequency
number of rats developing SE / seizure occurrence (pilocarpine-induced SE [3]; IL-RA 30 μg/kg tail vein 2 hours before scopolamine/pilocarpine): reduces seizure occurrence
mortality associated with pilocarpine seizures (twelve hours) (pilocarpine-induced SE [3]; IL-RA pre-treatment): decreased
time to onset of SE (pilocarpine-induced SE [3]; IL-RA pre-treatment): delayed
pilocarpine-induced BBB damage (blood-brain barrier): prevents BBB damage

adrenocorticotropic hormone (SYSMEHFRWGKPVGKKRRPVKVYPNGAEDESAEAFPLEF; Corticotropin; UniProt P01189 138-176, looked up) [ACTH]
occurrence of seizures (seizure burden vs baseline) [2]: significantly reduced
